Values of other authors as cited in patent US20220192993A1, “DOSAGE FORMS AND METHODS OF PREPARATION AND USE THEREOF” (Willow Bark Brands, Inc., priority 2019, published 2022).

Tested on: brain alpha wave activity
Details: reported effect, 'testing shows'

For `CCNC(=O)CC[C@H](N)C(=O)O` [L-Theanine], the “brain alpha wave activity” value is given as “L-Theanine increases”.
